Measurements taken from patent US20060063825A1, “Crystalline form of a drug” (priority 2004, published 2006).
In brackets after ≈: the same amount, converted by molar mass. Where a name gives a salt, the structure may show the parent alone. Each block holds one compound with its values, some of them ahead of it.

How the values were obtained:
[1] = Solubility of Atrasentan Hydrochloride Crystalline Forms in 1,4-dioxane; type: physicochemical; settings: 1,4-dioxane at 25° C. (n=3)
Protocol: The solubility (in mg/mL) of Atrasentan Hydrochloride Crystalline Forms 1, 2 and 3 in 1,4-dioxane at 25° C.

[2] = Conversion of crystalline forms of atrasentan hydrochloride to Form 2 in representative solvents at 25° C.; type: physicochemical; set-up: key: 1, 2 and 3 mean Atrasentan Hydrochloride Crystalline Forms 1, 2 and 3, respectively.; 1, 2 and 3 mean Atrasentan Hydrochloride Crystalline Forms 1, 2 and 3, respectively.; 1, 2 and 3 mean Atrasentan Hydrochloride Crystalline Forms 1, 2 and 3, respectively
Protocol: Examples of representative solvents that are useful for converting a particular crystalline form of atrasentan hydrochloride to Atrasentan Hydrochloride Crystalline Form 2 having substantial crystalline purity at 25° C. are shown in TABLE 2.

- solubility [1]: 16.53 ± 0.22 mg/mL (≈ 32.4 mM)
Compound: CCCCN(CCCC)C(=O)CN1C[C@H](c2ccc3c(c2)OCO3)[C@@H](C(=O)O)[C@@H]1c1ccc(OC)cc1 [Form 3, (2R,3R,4S)-(+)-2-(4-methoxyphenyl)-4-(1,3-benzodioxol-5-yl)-1-(N,N-di(n-butyl)aminocarbonylmethyl)pyrrolidine-3-carboxylic acid]

- crystalline form present ([2]; 0.1M HCl, week 1, 25° C.): 1
- crystalline form present ([2]; 0.1M HCl, week 2, 25° C.): 1
- crystalline form present ([2]; 0.1M HCl, week 4, 25° C.): 1
- crystalline form present ([2]; 0.1M HCl, week 9, 25° C.): 2
- crystalline form present ([2]; 0.1M HCl, week 16, 25° C.): 2
- crystalline form present ([2]; IPA (isopropyl alcohol), week 1, 25° C.): 1
- crystalline form present ([2]; IPA (isopropyl alcohol), week 2, 25° C.): 1
- crystalline form present ([2]; IPA (isopropyl alcohol), week 4, 25° C.): 2
- crystalline form present ([2]; IPA (isopropyl alcohol), week 9, 25° C.): 2
- crystalline form present ([2]; IPA (isopropyl alcohol), week 16, 25° C.): 2
- crystalline form present ([2]; PEG 400 (polyethylene glycol), week 1, 25° C.): 1
- crystalline form present ([2]; PEG 400 (polyethylene glycol), week 2, 25° C.): 1
- crystalline form present ([2]; PEG 400 (polyethylene glycol), week 4, 25° C.): 1
- crystalline form present ([2]; PEG 400 (polyethylene glycol), week 9, 25° C.): 1
- crystalline form present ([2]; PEG 400 (polyethylene glycol), week 16, 25° C.): 2
- crystalline form present ([2]; acetone, week 1, 25° C.): 2
- crystalline form present ([2]; acetone, week 2, 25° C.): 2
- crystalline form present ([2]; acetone, week 4, 25° C.): 2
- crystalline form present ([2]; acetone, week 9, 25° C.): 2
- crystalline form present ([2]; acetone, week 16, 25° C.): 2
- crystalline form present ([2]; ethanol, week 1, 25° C.): 2
- crystalline form present ([2]; ethanol, week 2, 25° C.): 2
- crystalline form present ([2]; ethanol, week 4, 25° C.): 2
- crystalline form present ([2]; ethanol, week 9, 25° C.): 2
- crystalline form present ([2]; ethanol, week 16, 25° C.): 2
- crystalline form present ([2]; ethyl acetate, week 1, 25° C.): 1
- crystalline form present ([2]; ethyl acetate, week 2, 25° C.): 1
- crystalline form present ([2]; ethyl acetate, week 4, 25° C.): 1
- crystalline form present ([2]; ethyl acetate, week 9, 25° C.): 2
- crystalline form present ([2]; ethyl acetate, week 16, 25° C.): 2
- crystalline form present ([2]; nitromethane, week 1, 25° C.): 3
- crystalline form present ([2]; nitromethane, week 2, 25° C.): 3
- crystalline form present ([2]; nitromethane, week 4, 25° C.): 3
- crystalline form present ([2]; nitromethane, week 9, 25° C.): 3
- crystalline form present ([2]; nitromethane, week 16, 25° C.): 2
Compound: CCCCN(CCCC)C(=O)CN1C[C@H](c2ccc3c(c2)OCO3)[C@@H](C(=O)O)[C@@H]1c1ccc(OC)cc1 [atrasentan hydrochloride, (2R,3R,4S)-(+)-2-(4-methoxyphenyl)-4-(1,3-benzodioxol-5-yl)-1-(N,N-di(n-butyl)aminocarbonylmethyl)pyrrolidine-3-carboxylic acid]
